Our source for the half-life values is PubChem BioAssay AID1508591.

Where a SMILES comes first, the peptide text is derived from it. [ ]: non-standard residue; d: D form. ξ: configuration not given here. ξLac(3-iPr) = CC(C)CC(O)C(=O)O; NMeV = CN[CH](C(=O)O)C(C)C; NMeA = CN[CH](C)C(=O)O; βAla = NCCC(=O)O

The term half-life denotes the time needed for the level to fall by half in the phase considered. Read a low half-life as fast loss.

For this data set the following is noted: rat; liver microsomes; pH 7.4; 15.0 min; 1.0 µM. A general note: Liver microsomes are vesicles of endoplasmic reticulum, rich in cytochrome P450 enzymes.

Consider `COc1ccc(C(=O)c2sc(Nc3cccc(Cl)c3)nc2N)cc1`, for which the half-life was found to be 5.07 min.

Regarding `O=C(NCc1ccccc1)c1nc(S(=O)(=O)Cc2ccc(F)cc2)ncc1Cl`, the half-life is 1.98 min. As for `CCOc1cc(CCNC(=O)c2cc3sccc3n2Cc2ccccc2)cc(F)c1OCC`, the figure is 2 min. `CC[C@@](C)(Nc1ccnc(-c2c[nH]c3ncccc23)n1)C(=O)NCC(F)(F)F`: the half-life was determined as 27.8 min.

`Cn1nnnc1SCCCNCc1cccc(OCc2ccccc2Cl)c1` yielded a half-life of 1.72 min. `Cc1nc([C@](C)(O)CO)sc1-c1cnc(N)c(O[C@H](C)c2cc(F)ccc2-n2nccn2)c1` registered a half-life of 22.6 min. As for `CS(=O)(=O)c1ccc(-c2cnc(NCc3ccco3)n3cnnc23)cc1`, the figure is more than 30 min. As for `COc1ccc(OC)c(-c2nc3c(C#N)c[nH]n3c2NC2CCCCC2)c1`, the figure is 4.2 min. Under `COc1ccc2[nH]c(=O)c(-c3noc(-c4cccs4)n3)cc2c1` stands 13 min; under `COc1ccc(-n2nc(C3CCCN(C(=O)c4cccc(OC)c4)C3)[nH]c2=O)cc1` (stereo not drawn), 23.4 min. Consider `O=C(Cc1ccc(Cl)c(Cl)c1)Nc1ccc(S(=O)(=O)Nc2nncs2)cc1`, for which the half-life is more than 30 min. As for `COCCn1ccc2c(C3=CCOCC3)nc(-c3ccc4c(c3)CNC4=O)cc21`, the figure is 9.18 min.

For the compound `CCOc1ccccc1CNS(=O)(=O)c1ccc(-c2cnc(C3CC3)o2)cc1`, the half-life stood at 1.64 min. As for `CC(=O)c1cccc(-c2csc3ncnc(Sc4nnnn4C)c23)c1`, the figure is 3.08 min. As for `O=C(Nc1cccc(Cc2ccccc2)n1)c1ccc(-c2cccc([N+](=O)[O-])c2)o1`, the figure is 1.7 min. `CN(C(=O)CNC(=O)c1ccccc1OCC(=O)Nc1ccc(I)cc1)c1ccccc1` returned a half-life of 1.44 min.

Compound `CCC(C)C1NC(=O)C2CCCN2C(=O)C(CC(C)C)OC(=O)CCNC(=O)C(C)N(C)C(=O)C(C(C)C)N(C)C1=O` (stereo not drawn) (cyclo([ξLac(3-iPr)]PI[NMeV][NMeA][βAla]); configuration not given here) gave a half-life of 18.1 min.

With `O=C(Nc1nc(-c2ccccc2)cs1)c1ccncc1NS(=O)(=O)c1ccc2c(c1)CCC2`, the half-life was found to be 5.6 min.

Regarding `Cc1cccc(N2CCN(C(=O)c3ccc4c(c3)C(O)CCCCCN4C)CC2)c1` (stereo not drawn), the half-life turned out to be 1.28 min.

On to `O=[S+]([O-])(Nc1nccs1)c1ccc(NCc2cccc(Cl)c2)cc1`, for which the half-life turned out to be 15 min. Under `Cn1c(=O)c2cc(C(=O)NCCCN3CCN(c4ccccc4F)CC3)sc2c2ccccc21` stands 1.97 min.

For the compound `Cc1cc(-c2nnc3n2CCCCC3)c(C)n1-c1ccc(F)cc1`, the half-life is 3.2 min. Under `O=S(=O)(Nc1nccs1)c1ccc(NCc2cccc(O)c2)cc1` stands more than 30 min; under `CC(=O)c1ccc(N2CCN(S(=O)(=O)c3ccc4c(c3)CC(=O)N4)CC2)cc1`, more than 30 min. As for `CN(C)c1cccc(-c2cnc(N3CCC(c4ncc[nH]4)CC3)s2)c1`, the figure is 4.63 min; as for `CCOc1ccc(CCNC(=O)c2cc3sccc3n2CCN(C)C)cc1OCC`, 1.6 min; as for `O=C(Cc1ccc(Cl)c(Cl)c1)Nc1ccc(S(=O)(=O)Nc2cncnc2)cc1`, more than 30 min. In turn, `FC(F)(F)c1ccc(CN2CCNc3cc(Nc4ccccc4)ncc3C2)cc1` showed a half-life of 17.3 min.

`N#Cc1cccc(S(=O)(=O)Nc2cnccc2C(=O)Nc2nc(-c3ccccc3)cs2)c1` had a half-life of 14 min. As for `Nc1nc(Nc2ccc(S(N)(=O)=O)cc2)nn1C(=O)c1c(F)cccc1F`, the figure is more than 30 min; as for `CC(=O)c1c(C)[nH]c(C(=O)Nc2ccc(OCCCN(C)C)c(S(=O)(=O)Nc3ccc(Br)cc3)c2)c1C`, more than 30 min. Take `CCC1=Nc2cc(C(=O)NCCCOC)ccc2Sc2ccc(Br)cc21`: the half-life was 5.46 min. As for `O=C(Nc1nc2cc(C(F)(F)F)cc(NC3CC3)n2n1)c1cccnc1`, the figure is more than 30 min. With `Clc1cccc(Nc2nc(-c3ccncc3)nc3ccccc23)c1`, the half-life is 7.7 min.

Take `COc1ccc(OCc2ccc(-c3nc(C#N)c(NC(C)c4ccccc4)o3)o2)cc1` (stereo not drawn): the half-life was 4.14 min. `Cc1cc(F)ccc1S(=O)(=O)Nc1cnccc1C(=O)Nc1nc(-c2ccccc2)cs1`: the half-life is 20 min.

`Cc1ccc(-c2ccc(CNc3nc(-c4ccccc4C(C)C)ncc3C)cc2)cn1` displayed a half-life of 4.28 min. As to `Cc1cccc(C(=O)N2CCc3cc(-c4nc(NC(=O)Cc5ccc6c(c5)OCO6)sc4C)ccc32)c1`, the half-life was determined as 4.4 min. As for `CCc1ccc(-n2nnc(-c3nsc(NC(=O)c4ccccc4Cl)n3)c2C)cc1`, the figure is 10.9 min. Take `CCN(CC)CCCNC(=O)c1oc2c(c1C)-c1nn(Cc3ccc(Cl)cc3)cc1CC2`: the half-life is more than 30 min. Under `c1cc(-c2cc(-c3ccncc3)c3cncn3c2)c2[nH]ccc2c1` stands 7.16 min.

For the compound `O=C(Nc1ccc(S(=O)(=O)Nc2nccs2)cc1)c1ccc2ccccc2c1`, the half-life is more than 30 min. Under `CCC(CC)(NC(=O)C(C)C)C(=O)N[C@@H](CCCN=C(N)N)C(=O)NC1(C(=O)NC(c2ccc(F)cc2)c2ccc(F)cc2)CCCC1` stands more than 30 min; under `O=C(NC[C@H]1Cn2c(-c3ccc(Cl)cc3)cnc2CO1)C1CCCC1`, more than 30 min; under `CC(C)NC(=O)C1CCN(C(=O)c2cc3sccc3n2Cc2ccc(Cl)cc2)CC1`, 1.05 min. As for `CN(C(=O)OC(C)(C)C)[C@@H](Cc1ccc(O[S+](=O)([O-])c2cccc3cnccc23)cc1)C(=O)N1CCN(C(=O)OCc2ccccc2)CC1`, the figure is 1.74 min; as for `O=C(Nc1ccc(S(=O)(=O)Nc2nccs2)cc1)c1cccnc1`, more than 30 min. Under `Cc1ccc(CCNC(=O)C2CCCN(C(=O)c3cc4sccc4n3C)C2)cc1` (stereo not drawn) stands 1.7 min; under `CN1CCCC(CC2c3ccccc3Sc3ccccc32)C1` (stereo not drawn), 1.4 min; under `CN(C)c1cccc(-c2nccc(N3CCC(C(N)=O)CC3)n2)c1`, 8.43 min. Turning to `CCN1C(=O)c2ccccc2[S@](=O)c2ccc(C(=O)N[C@H](C)c3ccc4ccccc4c3)cc21`, the half-life was determined as 5.2 min.

The compound `CCC(CC)c1cc([C@H]2CN3CC[C@H]2C[C@@H]3CNC(=O)Cc2cccs2)nc(-c2ccncc2)n1` registered a half-life of 2.78 min. Under `O=C1CCCC2=C1C1(CCCC1)N=C(Nc1nc3cc(Cl)ccc3o1)N2` stands 2.6 min; under `CCOc1ccc(CCNC(=O)c2cc3ncccc3n2Cc2cccc(C)n2)cc1OCC`, 6.7 min. `C[S+](=O)([O-])c1ccc(-c2nc(C(=O)NCc3cccnc3)n3ccccc23)cc1` yielded a half-life of more than 30 min. As to `Nc1nc2c(s1)C(c1cc(Cl)ccc1F)CC(=O)N2` (stereo not drawn), the half-life was more than 30 min.

As for `C=CCc1ccc(O)c(-c2ccc(O)c(CC=C)c2)c1`, the half-life stood at 2.36 min. Under `Fc1ccccc1-c1ccc(Nc2nc(-c3ccncc3)nc3ccccc23)cc1F` stands more than 30 min; under `O=C(NCC1Cn2cccc2CN1Cc1cccnc1)Nc1ccccc1` (stereo not drawn), 1.41 min; under `CCOC(=O)C1(Cc2ccccc2C(F)(F)F)CCN(C2CCN(C(C)C)CC2)CC1`, more than 30 min. As for `N#Cc1cccc(-c2nccc(-n3ccnc3)n2)c1`, the figure is 26 min; as for `Fc1ccc(Nc2nc(-n3ccnc3)nc3ccccc23)cc1F`, more than 30 min; as for `Cc1cccc(N(C)c2nc3ccccc3c3nnc(C)n23)c1`, 1.57 min.
